Assays:
L929 mouse fibroblasts = test: MTS cytotoxicity assay, L929 cells; format: cell-based; conditions: 24 hours incubation
Protocol: (§1) Cytotoxicity testing was carried out on precursor monomers and proteoglycan analogues via the MTS assay using a commercial Kit (MTS assay Cell titre 96® AQueous One Solution Cell Proliferation Assay). Briefly, 5×10^3 cells per well were allowed to adhere to a 96 well plate for 24 hours. The substance under test was added and incubated with the cells for 24 hours before assessment of cell activity with MTS solution. Two cell types were used: (i) L929 mouse fibroblasts (European Collection of Cell Culture: ECACC No 85011425) which are typically used in cytotoxicity tests and (ii) bovine nucleus pulposus cells, prepared by enzymatic digestion of nucleus pulposus from bovine coccygeal discs.
(§2) The individual possible components of proteoglycan analogues were tested, including: NaAMPS, KSPA, acryloyl morpholine (ACMO), glycerol, ascorbic acid, Oxone (potassium oxypersulphate), PEG diacrylate and multifunctional macromer cross-linkers. The proteoglycan analogues are exemplified by those in Tables 1 and 2.

[1] = tested on: bovine nucleus pulposus cells; test: MTS cytotoxicity assay, bovine nucleus pulposus cells; format: cell-based; conditions: bovine disc cells, 24 hours incubation
Protocol: as §1, §2

Compound: O=C1O[C@H]([C@@H](O)CO)C(O)=C1O [ascorbic acid]
- toxicity to cells (MTS assay) (L929 mouse fibroblasts): not to be toxic
- toxicity to cells (MTS assay) [1]: not to be toxic

Compound: potassium oxypersulphate [Oxone]
- toxicity to cells (MTS assay) (L929 mouse fibroblasts): not to be toxic
- toxicity to cells (MTS assay) [1]: not to be toxic
